This note sets out measurements from patent US8859543B2, “Imidazo[1,2-a]pyrazine derivatives and their use for the prevention or treatment of neurological, psychiatric and metabolic disorders and diseases” (Janssen Pharmaceutica NV, priority 2010, dated 2014).

For assay [1], the target named is T1, Rat recombinant PDE10A (rPDE10A2) (Rattus norvegicus, UniProt Q9QYJ6).
T1 construct: made in house; host or cells: Sf9 insect cells, baculovirus
T1 sequence (Q9QYJ6 1-794): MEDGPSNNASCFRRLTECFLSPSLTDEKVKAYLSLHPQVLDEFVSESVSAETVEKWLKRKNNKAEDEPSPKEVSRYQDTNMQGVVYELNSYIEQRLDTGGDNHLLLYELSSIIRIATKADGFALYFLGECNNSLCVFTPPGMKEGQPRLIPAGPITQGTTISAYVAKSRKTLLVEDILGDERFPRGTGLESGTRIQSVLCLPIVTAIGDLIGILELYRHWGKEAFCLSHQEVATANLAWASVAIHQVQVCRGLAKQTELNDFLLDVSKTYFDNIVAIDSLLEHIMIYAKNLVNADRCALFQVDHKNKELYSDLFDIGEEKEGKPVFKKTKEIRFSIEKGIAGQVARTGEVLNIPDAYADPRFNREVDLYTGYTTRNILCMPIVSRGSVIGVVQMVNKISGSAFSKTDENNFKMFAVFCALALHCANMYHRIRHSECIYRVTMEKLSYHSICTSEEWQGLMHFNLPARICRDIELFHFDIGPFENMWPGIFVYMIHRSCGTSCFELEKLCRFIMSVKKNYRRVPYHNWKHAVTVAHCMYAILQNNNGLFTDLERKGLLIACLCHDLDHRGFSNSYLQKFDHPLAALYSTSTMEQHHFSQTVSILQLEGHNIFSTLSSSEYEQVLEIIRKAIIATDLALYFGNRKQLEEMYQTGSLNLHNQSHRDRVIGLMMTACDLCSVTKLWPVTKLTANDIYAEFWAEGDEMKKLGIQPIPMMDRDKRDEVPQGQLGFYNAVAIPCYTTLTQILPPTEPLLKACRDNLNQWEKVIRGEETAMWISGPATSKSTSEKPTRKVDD
Kind of assay: In vitro assay PDE10A (SPA, 3H-cAMP). The note with it: pIC50 corresponds to the -log IC50 expressed in mol/L; for IC50: read-out: PDE10A2 pIC50 (converted). The assay is classed as biochemical. The protocol: Rat recombinant PDE10A (rPDE10A2) was expressed in Sf9 cells using a recombinant rPDE10A baculovirus construct. Cells were harvested after 48 h of infection and the rPDE10A protein was purified by metal chelate chromatography on Ni-sepharose 6FF. Tested compounds were dissolved and diluted in 100% DMSO to a concentration 100 fold of the final concentration in the assay. Compound dilutions (0.4 μl) were added in 384 well plates to 20 μl of incubation buffer (50 mM Tris pH 7.8, 8.3 mM MgCl2, 1.7 mM EGTA). 10 μl of rPDE10A enzyme in incubation buffer was added and the reaction was started by addition of 10 μl substrate to a final concentration of 60 nM cAMP and 0.008 μCi ^3H-cAMP. The reaction was incubated for 60 min. at RT. […] After sedimentation of the beads during 30 min. the radioactivity was measured in a Perkin Elmer Topcount scintillation counter and results were expressed as cpm. For blank values the enzyme was omitted from the reaction and replaced by incubation buffer. Control values were obtained by addition of a final concentration of 1% DMSO instead of compound. The same assay principle is applied for the measurement of the affinity of the compound for other members of the PDE family with appropriate modifications in incubation buffer, substrate concentration, incubation time and stop solution.

The subject of assay [2] is apomorphine-induced stereotypy. Nature of the assay: Apomorphine-induced stereotypy in rats (APO). The assay is classed as in vivo. The conditions noted are these: Rattus norvegicus. On the procedure:
Apomorphine-Induced Stereotypy in Rats (APO)
Apomorphine (1.0 mg/kg, i.v.)-induced stereotypy (compulsive sniffing, licking, chewing) was scored every 5 min. over the first hour after injection of apomorphine, following a 1 hour interval pre-treatment with the test compound. The score system was: (3) pronounced, (2) moderate, (1) slight, and (O) absent.

Setting [3] is: not active at 2.5 or at 10 mg/kg, not further tested, read-out: APO ED50 (not active at threshold dose).
Where [4] appears, read: po, * compound was not soluble and was tested orally as a suspension, read-out: APO ED50.

Read-outs that look alike come from different tables or passages of the source.

Usually ED50 stands for the dose at which the effect has come halfway, by size or by number of responders.

With `COCCCn1cc(-c2c(C)nc3c(-c4ccncc4)nccn23)cn1` [compound 102], in assay [1], the IC50 is 166 nM. In addition, the median effective dose (ED50) in assay [2] (read-out: APO ED50) turned out to be 5 mg/kg.

For `CCOC(C)(C)c1ccc(-c2c(C)nc3c(N4CCOCC4)nccn23)cn1` [compound 55], in assay [1], the IC50 is 57.5 nM. For the same molecule, the ED50 in assay [2] (setting [3]) was over 2.5 mg/kg. For `c1cn2c(-c3ccc(N4CCNCC4)nc3)c(C3CC3)nc2c(N2CCOCC2)n1` [compound 87] the same measures were 126 nM and over 2.5 mg/kg. For `Cc1nc2c(N3CCOCC3)nccn2c1-c1cnn(Cc2ccccc2Cl)c1` [compound 94], the “PDE10A2 pIC50” value in assay [1] came to 6.86. Besides, in assay [2] (setting [3]), the ED50 was over 2.5 mg/kg. Take `CCn1cc(-c2c(C)nc3c(N4CCOCC4)nccn23)cn1` [compound 38, 3-(1-Ethyl-1H-pyrazol-4-yl)-2-methyl-8-morpholin-4-yl-imidazo[1,2-a]pyrazine]: in assay [1], the “PDE10A2 pIC50” value was found to be 6.63. In addition, the median effective dose (ED50) in assay [2] (read-out: APO ED50) was at most 10 mg/kg. For `Cc1nc2c(N3CCOCC3)nccn2c1-c1cnn(CC2CCCCO2)c1` (single isomer, unassigned) [compound 58], the IC50 in assay [1] is 67.6 nM. Also, the ED50 in assay [2] (setting [3]) is over 2.5 mg/kg. As to `Cc1nc2c(N3CCOCC3)nccn2c1-c1cnn(CC(F)(F)F)c1` [compound 49], the “PDE10A2 pIC50” value in assay [1] was determined as 7.33. Moreover, the ED50 in assay [2] (read-out: APO ED50) came out at 5 mg/kg. Turning to `Cc1nc2c(N3CCOCC3)nccn2c1-c1cnn(CC2CC2)c1` [compound 62], the IC50 in assay [1] was 79.4 nM. In assay [2] (setting [3]), the ED50 is over 2.5 mg/kg.

Take `Cc1nc2c(N3CCOCC3)nccn2c1-c1cnn(Cc2cccnc2)c1` [compound 65]: the IC50 in assay [1] was 85.1 nM. Besides, in assay [2] (read-out: APO ED50), the ED50 came to 5 mg/kg. Regarding `Cc1nc2c(N3CCOCC3)nccn2c1-c1ccnc(N2CCCC2)c1` [compound 99], the IC50 in assay [1] is 151 nM. Moreover, in assay [2] (setting [3]), the ED50 is over 2.5 mg/kg. With `COC(C)CCn1cc(-c2c(C)nc3c(N4CCOCC4)nccn23)cn1` (single isomer, unassigned) [compound 84], in assay [1], the IC50 is 117 nM. Besides, the median effective dose (ED50) in assay [2] (setting [3]) was over 2.5 mg/kg. Take `COC(C)(C)COc1ccc(-c2c(C3CC3)nc3c(N4CCOCC4)nccn23)cn1` [compound 105]: the IC50 in assay [1] was 174 nM. The median effective dose (ED50) in assay [2] (setting [3]) was over 2.5 mg/kg.

As for `Cc1nc2c(N3CCOCC3)nccn2c1-c1ccnc(N2CCOCC2)c1` [compound 91], the IC50 in assay [1] is 135 nM. In addition, the ED50 in assay [2] (setting [3]) was over 2.5 mg/kg. For `Cc1nc2c(N3CCOCC3)nccn2c1-c1ccc(OCC2CC2)nc1` [compound 134], the IC50 in assay [1] is 562 nM. The ED50 in assay [2] (read-out: APO ED50) is at most 10 mg/kg. With `Cc1nc2c(-c3ccncc3)nccn2c1-c1cnn(CCO)c1` [compound 138], in assay [1], the IC50 is 724 nM. Further, in assay [2] (setting [3]), the 50% effective dose (ED50) was over 2.5 mg/kg. In the same order, the values of `Cc1nc2c(N3CCOCC3)nccn2c1-c1cnn(Cc2ccc(Cl)cc2)c1` [compound 121] are 372 nM and over 2.5 mg/kg. For the molecule `COCCCn1cc(-c2c(C)nc3c(N4CCOCC4)nccn23)cn1` [compound 68], the IC50 in assay [1] was 87.1 nM. The ED50 in assay [2] (read-out: APO ED50) came out at 3.1 mg/kg. `COCCn1cc(-c2c(C#N)nc3c(N4CCOCC4)nccn23)cn1` [compound 40, 3-[1-(2-Methoxy-ethyl)-1H-pyrazol-4-yl]-8-morpholin-4-yl-imidazo[1,2-a]pyrazine-2-carbonitrile]: in assay [1], the “PDE10A2 pIC50” value was 7.07. Besides, the 50% effective dose (ED50) in assay [2] (read-out: APO ED50) came out at 5 mg/kg. As for `COC(C)(C)COc1ccc(-c2c(C)nc3c(N4CCOCC4)nccn23)cn1` [compound 3, 3-[6-(2-Methoxy-2-methyl-propoxy)-pyridin-3-yl]-2-methyl-8-morpholin-4-yl-imidazo[1,2-a]pyrazine], in assay [1], the IC50 is 457 nM. The ED50 in assay [2] (read-out: APO ED50) is 5 mg/kg. On to `COc1nc2c(N3CCOCC3)nccn2c1-c1ccc(CC(C)(C)OC)nc1` [compound 95], for which the IC50 in assay [1] was 141 nM. The ED50 in assay [2] (setting [3]) is over 2.5 mg/kg. In the case of `COCCc1ccc(-c2c(C)nc3c(N4CCCC4)nccn23)cn1` [compound 124], the ED50 in assay [2] (setting [3]) was over 2.5 mg/kg. Turning to `COC[C@@H](C)n1cc(-c2c(C)nc3c(-c4ccncc4)nccn23)cn1` [compound 104], the IC50 in assay [1] is 170 nM. Further, the median effective dose (ED50) in assay [2] (read-out: APO ED50) stood at 5 mg/kg. Take `Cc1nc2c(N3CCOCC3)nccn2c1-c1cnn(CC(F)F)c1` [compound 56]: the IC50 in assay [1] was 57.5 nM. Also, in assay [2] (setting [4]), the ED50 turned out to be 3.1 mg/kg. As to `Cc1nc2c(N3CCOCC3)nccn2c1-c1cnn(CCN2CCOCC2)c1` [compound 116], the IC50 in assay [1] was 275 nM. The ED50 in assay [2] (setting [3]) is over 2.5 mg/kg.

In the case of `Cc1nc2c(N3CCOCC3)nccn2c1-c1cnn(Cc2ccncc2)c1` [compound 77], the “PDE10A2 pIC50” value in assay [1] turned out to be 6.99. For the same molecule, the ED50 in assay [2] (read-out: APO ED50) was at most 10 mg/kg. For `COC(C)CCn1cc(-c2c(C)nc3c(N4CCOCC4)nccn23)cn1` (single isomer, unassigned) [compound 61], the IC50 in assay [1] was 79.4 nM. The ED50 in assay [2] (read-out: APO ED50) was 5 mg/kg. As to `COC[C@H](C)n1cc(-c2c(C)nc3c(-c4ccncc4)nccn23)cn1` [compound 79], the IC50 in assay [1] is 107 nM. In addition, the median effective dose (ED50) in assay [2] (read-out: APO ED50) came out at 5 mg/kg.

With `Cc1nc2c(N3CCOCC3)nccn2c1-c1cnn(C2CCOC2)c1` (stereo not shown) [compound 82], the IC50 in assay [1] is 115 nM. In addition, the 50% effective dose (ED50) in assay [2] (read-out: APO ED50) came out at 3.1 mg/kg. As for `CCC(COC)n1cc(-c2c(C)nc3c(N4CCOCC4)nccn23)cn1` (stereo not shown) [compound 111], the IC50 in assay [1] was 219 nM. The ED50 in assay [2] (setting [3]) was over 2.5 mg/kg. In the case of `Cc1nc2c(N3CCOCC3)nccn2c1-c1ccc(N2CCNCC2)nc1` [compound 23, 2-Methyl-8-morpholin-4-yl-3-(6-piperazin-1-yl-pyridin-3-yl)-imidazo[1,2-a]pyrazine], the ED50 in assay [2] (setting [3]) is over 2.5 mg/kg. Turning to `COCCOc1ccc(-c2c(C)nc3c(N4CCOCC4)nccn23)cn1` [compound 1, 3-[6-(2-Methoxy-ethoxy)-pyridin-3-yl]-2-methyl-8-morpholin-4-yl-imidazo[1,2-a]pyrazine], the ED50 in assay [2] (setting [4]) was determined as 0.8 mg/kg. For `COCCc1ccc(-c2c(C)nc3c(N4CCOCC4)nccn23)nc1` [compound 31, 3-[5-(2-Methoxy-ethyl)-pyridin-2-yl]-2-methyl-8-morpholin-4-yl-imidazo[1,2-a]pyrazine], the 50% effective dose (ED50) in assay [2] (setting [3]) is over 2.5 mg/kg.

Take `COCCn1cc(-c2c(C)nc3c(N4CCOCC4)nccn23)cn1` [compound 35, 2-Methyl-3-[1-(2-methoxy-ethyl)-1H-pyrazol-4-yl]-8-morpholin-4-yl-imidazo[1,2-a]pyrazine]: in assay [2] (read-out: APO ED50), the ED50 came out at 5 mg/kg. Take `Cc1nc2c(N3CCOCC3)nccn2c1-c1ccc(C(C)C)nc1` [compound 107]: the median effective dose (ED50) in assay [2] (read-out: APO ED50) came out at 5 mg/kg.

On to `CCc1ccc(-c2c(C)nc3c(N4CCOCC4)nccn23)cn1` [compound 26, 3-(6-Ethyl-pyridin-3-yl)-2-methyl-8-morpholin-4-yl-imidazo[1,2-a]pyrazine], for which, in assay [2] (setting [3]), the median effective dose (ED50) is over 2.5 mg/kg. Same read-out and setting: with `Cc1nc2c(N3CCOCC3)nccn2c1-c1ccc(N2CCCC2)nc1` [compound 123] the figure was over 2.5 mg/kg. For `Cc1nc2c(N3CCOCC3)nccn2c1-c1ccc(CC(C)C)nc1` [compound 106], the median effective dose (ED50) in assay [2] (setting [3]) is over 2.5 mg/kg. Same read-out and setting: with `COCCc1ccc(-c2c(C(C)C)nc3c(N4CCOCC4)nccn23)cn1` [compound 13, 2-Isopropyl-3-[6-(2-methoxy-ethyl)-pyridin-3-yl]-8-morpholin-4-yl-imidazo[1,2-a]pyrazine] the figure was over 2.5 mg/kg; with `COCCc1cc(-c2c(C)nc3c(N4CCOCC4)nccn23)ccn1` [compound 19, 3-[2-(2-Methoxy-ethyl)-pyridin-4-yl]-2-methyl-8-morpholin-4-yl-imidazo[1,2-a]pyrazine], over 2.5 mg/kg.
